In patent US10265395B2, “Adjuvant compositions and related methods” (priority 2015, dated 2019):

Assays:
BSA [1] = assay: ELISA seroconversion to BSA in mice, BSA/adjuvant stability, time 0 and 6 months (Example 4); type: in vivo; details: for Normalized: Day 28/29, Table 18 (to BSA only GMT of the same storage temperature); for Geometric Means: Time point 6 Months
BSA [2] = assay: ELISA seroconversion to BSA in CF-1 mice, BSA/adjuvant stability at 12 months (Example 8); type: in vivo; details: 12 Month; for Geometric Mean (ELISA to BSA): adjuvants at 4X, > 20 considered positive
[3] = 6 Month, Day 28/29, S = stored stability sample, F = fresh, storage in the label
[4] = Day 13, mice SC 50 ug BSA/0.1 mL
[5] = Day 28/29, mice SC 50 ug BSA/0.1 mL days 0 and 14
[6] = Time 0, Day 32, mice SC 50 ug BSA/0.1 mL on days 0 and 14, value of 10 used for no seroconversion

Substance | Incidence (# Mice Seroconverted/# Mice Treated) (BSA [1]; 6 Month, Day 28/29) | Normalized (BSA [1]; 6 Month) | Geometric Mean (ELISA to BSA) (BSA [1]; [3]) | Incidence (BSA [2]; Day 13) | Geometric Mean (ELISA to BSA) (BSA [2]; [4]) | Incidence (BSA [2]; Day 28/29) | Geometric Mean (ELISA to BSA) (BSA [2]; [5]) | Incidence (# Mice Seroconverted/# Mice Treated) (BSA [1]; Time 0, Day 32) | Normalized (Geomean BSA/Adj06 ÷ Geomean BSA/PBS) (BSA [1]; Time 0, Day 32) | Geometric Mean (ELISA to BSA) (BSA [1]; [6]) | Geometric Means (BSA [1]; Fresh) | Geometric Means (BSA [1]; Stability Ambient - Storage (18-27° C.)) | Geometric Means (BSA [1]; Stability Cold - Storage (2-7° C.))
S-BSA/RT | 8/10 | 1 | 243 | 5/10 | 25 | 7/10 | 184 | – | – | – | – | – | –
F-BSA | 6/10 | – | 98 | 5/9 | 20 | 7/10 | 149 | – | – | – | – | – | –
S-BSA/2-7° C. | 8/10 | 1 | 149 | 2/9 | 15 | 5/10 | 86 | 8/10 | 1 | 290 | – | – | –
BSA/PBS | – | – | – | – | – | – | – | 8/10 | – | 290 | 98 | 243 | 149
